Laboratory results from US7309793B2, “Benzopyran derivatives substituted with a benzimidazole derivative, pharmaceutically acceptable salts therof, their preparations and pharmaceutical compositions containing them” (Dongbu Hannong Chemical Co., Ltd., priority 2003, dated 2007).

Assays:
rat aorta = assay: Vasodilating effect on blood vessel isolated from white rats (methoxamine-constricted aortic rings); conditions: for IC50: isolated rat aorta constricted with methoxamine (3 μM), endothelium removed, read-out: Concentration for inhibition of constriction induced by methoxamine in rat arota (IC50); for weaker vasorelaxation effect than that of BMS-180448 (times): ratio of IC50 versus BMS-180448
Excerpt: White rats (350˜450 g; the Experimental Animal Team of the Korea Research Institute of Chemical Technology) were knocked to be unconscious by hitting the occipital region, sacrificed by cervical dislocation, and underwent thoracotomy. After being quickly removed, the thoracic aorta was deprived of the adipose tissue and cut into aortic rings of 3 mm width. The aorta was lightly rubbed with cotton club soaked in a modified Krebs Henseleit buffer (physiological salt solution) to remove the inner […] layer therefrom. While being hung in an organ bath containing a physiological buffer, the vascular smooth muscle was allowed to equilibrate under a resting tension of 2 g and then, stand for 1 hour at 37° C. for stabilization, supplying a carbogen consisting of 95% O2/5% CO2. Thereafter, the vascular smooth muscle was constricted with 10^−5 M phenylephrine and washed several times with physiological saline solution. The said procedure was repeated to ensure the stable reactivity of vascular smooth muscle to repetitive constriction/relaxation.
Thereafter, 3×10^−6 M methoxamine was applied to induce an intensive constriction in the vascular smooth muscle. When the vasoconstriction induced by the methoxamine was reached and maintained to a maximum, test compounds and control material were cumulatively added to the organ bath with concentration of 1, 3, 10 and 30 μM, respectively, to examine the vasodilating effect. Cromakalim and BMS-180448 (compound of <Formula 2>), known to be the first generation KATP opener with potent vasodilating effect, were used as control materials.
The change rate of constriction by the addition of the drugs compared to the maximal constriction induced by methoxamine was calculated to plot a concentration-relaxation response curve. Through a least linear regression analysis, IC50 that the drug concentration at which the vascular tissue is relaxed to 50% extent of the maximal constriction, was obtained for each drug. And the results were shown in the below Table 1.

isolated rat hearts = assay: Cardioprotective effect on isolated ischemic heart models of white rats (Langendorff, global ischemia-reperfusion); conditions: 10 μM; for LVDP × HR (left ventricular developed pressure × heart rate), % of pre-treatment / EDP (left ventricular end diastolic pressure): 30 min global ischemia, 30 min reperfusion; for EDP (left ventricular end diastolic pressure): baseline 5 mmHg; for LDH (concentration of lactate dehydrogenase, reperfusion release): after 30 min reperfusion; for TTC (time to contracture / time to induce contraction): during 30 min global ischemia, first 5 mmHg increase in EDP
Description: 100 mg/kg of sodium pentobarbital was injected in abdominal cavity of white male rats (300˜450 g; the experimental animal team of the Korea Research Institute of Chemical Technology) to anesthetize them. Then, an intravenous injection of 1000 U/kg of heparin was performed before taking out heart. Particularly, cannula(PE 240) was inserted in the trachea, and artificial respiration was tried upon the rat by using a rodent ventilator. Under that condition, aortic cannula was inserted in the aorta and heart was taken out under retrograde perfusion. The extracted heart was hung on Langendorff apparatus quickly and unnecessary tissues on heart were removed. Perfusion was induced under static pressure (85 mmHg) with 37° C. modified Krebs-Henseleit bicarbonate buffer (composition <mM/L>: 116 NaCl, 4.7 KCl, 1.1 MgSO4, 1.17 KH2PO4, 24.9 NaHCO3, 2.52 CaCl2, 8.32 Glucose, 2.0 Pyruvate) saturated with 95% O2/5% CO2. A metal cannula, to which a latex balloon filled with a ethanol-distilled water mixture (1:1 vol/vol) was linked, was inserted in left ventricle through pulmonary vein. Then, left ventricular pressure transmitted through the balloon was transduced by using pressure transducer, and amplified by using isovolumetric amplifier(Plugsys bridge amplifier). Then, the pressure was recorded in a recorder (Linearcorder mark 8 WR 3500). Thereafter, heart was stabilized for 15 minutes. Then, left ventricular end diastolic pressure (LVEDP) was given by 5 mmHg and such volume of the balloon was kept throughout the experiments.
Baseline cardiac contractile function, heart rate (HR), and coronary flow (CF) were measured. Cardiac contractile function was calculated by […], yielding LVDP (left ventricular developed pressure). Double product RPP (rate-pressure product)(DP), another important parameter for indirectly assessing cardiac performance in Langendorff heart, in which cardiac output could not be measured ordinarily, was calculated by multiplying HR by LVDP. Throughout the experiment, total coronary blood flow was measured by the use of coronary flow probe (diameter: 1.0 mm) installed in aortic cannula with electromagnetic flowmeter. Temperature of heart was steadily maintained by immersing the heart at 37° C. in physiological saline solution to which 95% O2/5% CO2 was constantly supplied. After stabilization for 15 min, the hearts were pre-treated for 10 min with vehicle (0.04% DMSO) only or a compound of the present invention or the control material in the vehicle. Thereafter, cardiac contractile function, HR and CF were repeatedly measured. Global ischemia was induced by completely shutting off the perfusate for 30 min. Severity of ischemia was determined as the time to contracture (TTC, min) during global ischemia in which the first 5 mmHg increase in EDP was observed. Then, the hearts were reperfused and, 30 min later, contractile functions (LVDP, HR and CF) were repeatedly measured. After reperfusion was accomplished for 30 min, LDH (lactate dehydrogenase) was measured with a kit as a sensitive index for loss of cell viability.

SMILES	IC50 (rat aorta) [µM]	weaker vasorelaxation effect than that of BMS-180448 (times) (rat aorta)	LVDP × HR (left ventricular developed pressure × heart rate), % of pre-treatment (isolated rat hearts) [%]	EDP (left ventricular end diastolic pressure) (isolated rat hearts) [mmHg]	LDH (concentration of lactate dehydrogenase, reperfusion release) (isolated rat hearts) [unit/g]	TTC (time to contracture / time to induce contraction) (isolated rat hearts) [min]	weaker vasorelaxation effects than that of Cromakalim (times) (rat aorta; ratio of IC50 versus Cromakalim)
COC(OC)[C@@]1(C)Oc2ccc([N+](=O)[O-])cc2[C@H](n2c(=NC#N)[nH]c3ccccc32)[C@H]1O [Example 1, (2S, 3R, 4S)-6-nitro-3,4-dihydro-3-hydroxy-2-dimethoxymethyl-2-methyl-4-(2,3-dihydro-2-cyanoimino-1H-benzimidazol-1-yl)-2H-1-benzopyran]	50.1	36	68.8	20.3	8.1	23.2	
COC(OC)[C@@]1(C)Oc2ccc([N+](=O)[O-])cc2[C@H](n2c(=O)[nH]c3ccccc32)[C@H]1O [Example 18, (2S, 3R, 4S)-6-nitro-3,4-dihydro-3-hydroxy-2-dimethoxymethyl-2-methyl-4-(2,3-dihydro-2-oxo-1H-benzimidazol-1-yl)-2H-1-benzopyran]			41.5	29.3	20.4	24.2	
CC1(C)Oc2ccc(C#N)cc2C(N2CCCC2=O)C1O (centres unmarked) [Cromakalim, reference compound]	0.067						
CC1(C)Oc2ccc([N+](=O)[O-])cc2[C@H](n2c(=O)[nH]c3ccccc32)[C@H]1O [Example 20, (3R, 4S)-6-nitro-3,4-dihydro-3-hydroxy-2,2-dimethyl-4-(2,3-dihydro-2-oxo-1H-benzimidazol-1-yl)-2H-1-benzopyran]	18.6	10	55.5	29.0	20.7	23.9	
CC1(C)Oc2ccc(C#N)cc2[C@@H](NC(=NC#N)Nc2ccc(Cl)cc2)[C@@H]1O [BMS-180448, reference compound]	1.38		67.6	16.5	17.2	27.8	twenty times weaker
